Measured values reported in PubChem BioAssay AID1259407 (Chemical Carcinogenesis Research Information System (CCRIS), 2018).
Activity calls are given as the source filed them. No rule for the calls is given here.

Test system: CCRIS mutagenicity, Ames/micronucleus/aberration tests
Test: CCRIS mutagenicity studies
[1] = Test System: AMES SALMONELLA TYPHIMURIUM, Strain/Indicator: TA98, Metabolic Activation: NONE, Method: STANDARD PLATE
[2] = Test System: AMES SALMONELLA TYPHIMURIUM, Strain/Indicator: TA98, Metabolic Activation: RAT, LIVER, S-9, AROCLOR 1254, Method: STANDARD PLATE
[3] = Test System: AMES SALMONELLA TYPHIMURIUM, Strain/Indicator: TA100, Metabolic Activation: NONE, Method: STANDARD PLATE
[4] = Test System: AMES SALMONELLA TYPHIMURIUM, Strain/Indicator: TA100, Metabolic Activation: RAT, LIVER, S-9, AROCLOR 1254, Method: STANDARD PLATE
[5] = Test System: AMES SALMONELLA TYPHIMURIUM, Strain/Indicator: TA102, Metabolic Activation: NONE, Method: STANDARD PLATE
[6] = Test System: AMES SALMONELLA TYPHIMURIUM, Strain/Indicator: TA1535, Metabolic Activation: NONE, Method: STANDARD PLATE
[7] = Test System: AMES SALMONELLA TYPHIMURIUM, Strain/Indicator: TA1537, Metabolic Activation: NONE, Method: STANDARD PLATE
[8] = Test System: AMES SALMONELLA TYPHIMURIUM, Strain/Indicator: TA1538, Metabolic Activation: RAT, LIVER, S-9, AROCLOR 1254, Method: STANDARD PLATE

Structure (SMILES): CC1(C)[C@H](/C=C(\Cl)C(F)(F)F)[C@@H]1C(=O)O[C@@H](C#N)c1cccc(Oc2ccccc2)c1
- mutagenic call (End Point: IN VIVO CHROMOSOMAL ABERRATIONS, Test System: BONE MARROW, Species: RAT, Strain/Sex: WISTAR/FEMALE, Route: IP): active; positive (structural changes)
- mutagenic call (End Point: IN VIVO MICRONUCLEUS, Test System: BONE MARROW POLYCHROMATIC ERYTHROCYTES, Species: RAT, Strain/Sex: WISTAR/FEMALE, Route: ORAL (GAVAGE)): active; positive
- mutagenic call (End Point: IN VIVO MICRONUCLEUS, Test System: BONE MARROW, Species: RAT, Strain/Sex: WISTAR/FEMALE, Route: IP): active; positive
- mutagenic call (End Point: IN VIVO MICRONUCLEUS, Test System: POLYCHROMATIC ERYTHROCYTES FROM COLONIC CRYPT EPITHELIAL CELLS, Species: RAT, Strain/Sex: WISTAR/FEMALE, Route: ORAL (GAVAGE)): active; positive

Structure (SMILES): Cc1cc(Cl)ccc1OCC(=O)O
- mutagenic call (Test System: AMES SALMONELLA TYPHIMURIUM, Strain/Indicator: TA97, Metabolic Activation: NONE, Method: STANDARD PLATE): inactive; negative
- mutagenic call (Test System: AMES SALMONELLA TYPHIMURIUM, Strain/Indicator: TA97, Metabolic Activation: RAT, LIVER, S-9, AROCLOR 1254, Method: STANDARD PLATE): inactive; negative
- mutagenic call (Test System: AMES SALMONELLA TYPHIMURIUM, Strain/Indicator: TA97A, Metabolic Activation: NONE, Method: STANDARD PLATE): inactive; negative
- mutagenic call (Test System: AMES SALMONELLA TYPHIMURIUM, Strain/Indicator: TA97A, Metabolic Activation: RAT, LIVER, S-9, AROCLOR 1254, Method: STANDARD PLATE): inactive; negative
- mutagenic call [1]: inactive; negative
- mutagenic call [2]: inactive; negative
- mutagenic call [3]: inactive; negative
- mutagenic call [4]: inactive; negative
- mutagenic call [5]: inactive; negative
- mutagenic call (Test System: AMES SALMONELLA TYPHIMURIUM, Strain/Indicator: TA102, Metabolic Activation: RAT, LIVER, S-9, AROCLOR 1254, Method: STANDARD PLATE): inactive; negative
- mutagenic call [6]: inactive; negative
- mutagenic call (Test System: AMES SALMONELLA TYPHIMURIUM, Strain/Indicator: TA1535, Metabolic Activation: RAT, LIVER, S-9, AROCLOR 1254, Method: STANDARD PLATE): inactive; negative
- mutagenic call [7]: inactive; negative
- mutagenic call (Test System: AMES SALMONELLA TYPHIMURIUM, Strain/Indicator: TA1537, Metabolic Activation: RAT, LIVER, S-9, AROCLOR 1254, Method: STANDARD PLATE): inactive; negative
- mutagenic call (Test System: AMES SALMONELLA TYPHIMURIUM, Strain/Indicator: TA1538, Metabolic Activation: NONE, Method: STANDARD PLATE): inactive; negative
- mutagenic call [8]: inactive; negative

Structure (SMILES): O=C(c1ccccc1)C1OC1c1ccc(-c2ccccc2)cc1 (stereo not drawn)
- mutagenic call [1]: inactive; negative
- mutagenic call [2]: inactive; negative
- mutagenic call [3]: inactive; negative
- mutagenic call [4]: inactive; negative

Structure (SMILES): Cc1ccc(N)cc1O
- mutagenic call (Test System: AMES SALMONELLA TYPHIMURIUM, Strain/Indicator: TA97, Metabolic Activation: HAMSTER, LIVER, S-9, AROCLOR 1254 (10%), Method: PREINCUBATION): active; positive
- mutagenic call (Test System: AMES SALMONELLA TYPHIMURIUM, Strain/Indicator: TA97, Metabolic Activation: NONE, Method: PREINCUBATION): inactive; negative
- mutagenic call (Test System: AMES SALMONELLA TYPHIMURIUM, Strain/Indicator: TA97, Metabolic Activation: RAT, LIVER, S-9, AROCLOR 1254 (10%), Method: PREINCUBATION): active; positive
- mutagenic call (Test System: AMES SALMONELLA TYPHIMURIUM, Strain/Indicator: TA98, Metabolic Activation: HAMSTER LIVER S-9, AROCLOR 1254, Method: STANDARD PLATE): inactive; negative
- mutagenic call (Test System: AMES SALMONELLA TYPHIMURIUM, Strain/Indicator: TA98, Metabolic Activation: HAMSTER, LIVER, S-9, AROCLOR 1254 (10%), Method: PREINCUBATION): active; positive
- mutagenic call (Test System: AMES SALMONELLA TYPHIMURIUM, Strain/Indicator: TA98, Metabolic Activation: NONE, Method: PREINCUBATION): inactive; negative
- mutagenic call [1]: inactive; negative
- mutagenic call (Test System: AMES SALMONELLA TYPHIMURIUM, Strain/Indicator: TA98, Metabolic Activation: RAT LIVER S-9, AROCLOR 1254, Method: STANDARD PLATE): inactive; negative
- mutagenic call (Test System: AMES SALMONELLA TYPHIMURIUM, Strain/Indicator: TA98, Metabolic Activation: RAT, LIVER, S-9, AROCLOR 1254 (10%), Method: PREINCUBATION): active; positive
- mutagenic call (Test System: AMES SALMONELLA TYPHIMURIUM, Strain/Indicator: TA100, Metabolic Activation: HAMSTER LIVER S-9, AROCLOR 1254, Method: STANDARD PLATE): inactive; negative
- mutagenic call (Test System: AMES SALMONELLA TYPHIMURIUM, Strain/Indicator: TA100, Metabolic Activation: HAMSTER, LIVER, S-9, AROCLOR 1254 (10%), Method: PREINCUBATION): active; positive
- mutagenic call (Test System: AMES SALMONELLA TYPHIMURIUM, Strain/Indicator: TA100, Metabolic Activation: NONE, Method: PREINCUBATION): inactive; negative
- mutagenic call [3]: inactive; negative
- mutagenic call (Test System: AMES SALMONELLA TYPHIMURIUM, Strain/Indicator: TA100, Metabolic Activation: RAT LIVER S-9, AROCLOR 1254, Method: STANDARD PLATE): inactive; negative
- mutagenic call (Test System: AMES SALMONELLA TYPHIMURIUM, Strain/Indicator: TA100, Metabolic Activation: RAT, LIVER, S-9, AROCLOR 1254 (10%), Method: PREINCUBATION): active; positive
- mutagenic call (Test System: AMES SALMONELLA TYPHIMURIUM, Strain/Indicator: TA102, Metabolic Activation: HAMSTER LIVER S-9, AROCLOR 1254, Method: STANDARD PLATE): inactive; negative
- mutagenic call [5]: inactive; negative
- mutagenic call (Test System: AMES SALMONELLA TYPHIMURIUM, Strain/Indicator: TA102, Metabolic Activation: RAT LIVER S-9, AROCLOR 1254, Method: STANDARD PLATE): inactive; negative
- mutagenic call (Test System: AMES SALMONELLA TYPHIMURIUM, Strain/Indicator: TA1535, Metabolic Activation: HAMSTER LIVER S-9, AROCLOR 1254, Method: STANDARD PLATE): inactive; negative
- mutagenic call (Test System: AMES SALMONELLA TYPHIMURIUM, Strain/Indicator: TA1535, Metabolic Activation: HAMSTER, LIVER, S-9, AROCLOR 1254 (10%), Method: PREINCUBATION): inactive; negative
- mutagenic call (Test System: AMES SALMONELLA TYPHIMURIUM, Strain/Indicator: TA1535, Metabolic Activation: NONE, Method: PREINCUBATION): inactive; negative
- mutagenic call [6]: inactive; negative
- mutagenic call (Test System: AMES SALMONELLA TYPHIMURIUM, Strain/Indicator: TA1535, Metabolic Activation: RAT LIVER S-9, AROCLOR 1254, Method: STANDARD PLATE): inactive; negative
- mutagenic call (Test System: AMES SALMONELLA TYPHIMURIUM, Strain/Indicator: TA1535, Metabolic Activation: RAT, LIVER, S-9, AROCLOR 1254 (10%), Method: PREINCUBATION): inactive; negative
- mutagenic call (Test System: AMES SALMONELLA TYPHIMURIUM, Strain/Indicator: TA1537, Metabolic Activation: HAMSTER LIVER S-9, AROCLOR 1254, Method: STANDARD PLATE): inactive; negative
- mutagenic call [7]: inactive; negative
- mutagenic call (Test System: AMES SALMONELLA TYPHIMURIUM, Strain/Indicator: TA1537, Metabolic Activation: RAT LIVER S-9, AROCLOR 1254, Method: STANDARD PLATE): inactive; negative
- mutagenic call (Test System: Mouse lymphoma, Strain/Indicator: L5178Y (tk+/tk-), Metabolic Activation: None, Method: Suspension/plate): active; positive
- mutagenic call (Test System: Mouse lymphoma, Strain/Indicator: L5178Y (tk+/tk-), Metabolic Activation: Rat, Liver, S-9, Aroclor 1254, Method: Suspension/plate): inactive; negative

Structure (SMILES): CCOc1cc(N=Nc2ccc(N(CCO)CCO)cc2)ccc1N=Nc1c(S(=O)(=O)O)cc2ccc(N)cc2c1O
- mutagenic call [1]: inactive; negative
- mutagenic call [2]: active; positive
- mutagenic call [3]: inactive; negative
- mutagenic call [4]: inactive; negative
- mutagenic call [8]: active; positive
